{"source": "patent US20090155363A1", "about": "“METHODS FOR ORAL ADMINISTRATION OF ACTIVE DRUGS” (priority 2007, published 2009)", "origin": "cited, not measured here", "conditions": "drug mixed with foods such as applesauce or vegetable juice, relative to administration of a nizatidine capsule with water"}
{"smiles": "CNC(=C[N+](=O)[O-])NCCSCc1csc(CN(C)C)n1", "note": "[nizatidine]", "values": [{"measurement": "reduction of bioavailability", "value": "30 to 40", "unit": "%"}]}
